In ChEMBL document CHEMBL1201862, “PubChem BioAssay data set” (2004):
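Results reflect a 48-hour exposure of cells in 96-well plates to compound at five concentrations. GI50: concentration for 50% inhibition of growth.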 Calls of active or inactive are those of the source. No stated cut-off is given here; in the data, active = GI50 up to about 1.1 µM and inactive = higher.

What was measured:
Experiment in all cases: NCI tumour cell line growth inhibition, 48 h
NCI-H226 = tested on: NCI-H226
SNB-75 = tested on: SNB-75
TK-10 = tested on: TK-10
ACHN = tested on: ACHN
SK-MEL-2 = tested on: SK-MEL-2
OVCAR-3 = tested on: OVCAR-3
A498 = tested on: A498
SK-MEL-28 = tested on: SK-MEL-28
SW-620 = tested on: SW-620
T47D = tested on: T47D
MOLT-4 = tested on: MOLT-4
PC-3 = tested on: PC-3
OVCAR-8 = tested on: OVCAR-8
CCRF-CEM = tested on: CCRF-CEM
Hs-578T = tested on: Hs-578T
SR = tested on: SR
HOP-92 = tested on: HOP-92
DU-145 = tested on: DU-145
UACC-257 = tested on: UACC-257
BT-549 = tested on: BT-549
OVCAR-4 = tested on: OVCAR-4
LOX IMVI = tested on: LOX IMVI
EKVX = tested on: EKVX
HCT-116 = tested on: HCT-116
MDA-N = tested on: MDA-N
M14 = tested on: M14
NCI-H460 = tested on: NCI-H460
NCI-H522 = tested on: NCI-H522
SF-295 = tested on: SF-295
A549 = tested on: A549
MDA-MB-231 = tested on: MDA-MB-231
786-0 = tested on: 786-0
UO-31 = tested on: UO-31
HCT-15 = tested on: HCT-15
HT-29 = tested on: HT-29
RXF 393 = tested on: RXF 393
NCI/ADR-RES = tested on: NCI/ADR-RES
CAKI-1 = tested on: CAKI-1
IGROV-1 = tested on: IGROV-1
K562 = tested on: K562
OVCAR-5 = tested on: OVCAR-5
UACC-62 = tested on: UACC-62
SN12C = tested on: SN12C
SNB-19 = tested on: SNB-19
HCC 2998 = tested on: HCC 2998
U-251 = tested on: U-251
SF-268 = tested on: SF-268
SK-MEL-5 = tested on: SK-MEL-5
HOP-62 = tested on: HOP-62
KM12 = tested on: KM12
NCI-H23 = tested on: NCI-H23
Malme-3M = tested on: Malme-3M
MDA-MB-435 = tested on: MDA-MB-435
RPMI-8226 = tested on: RPMI-8226
SF-539 = tested on: SF-539
HL-60 = tested on: HL-60
COLO 205 = tested on: COLO 205
SK-OV-3 = tested on: SK-OV-3
MCF7 = tested on: MCF7

Measured: GI50

Cn1c(=O)c2c(nc(NCCNc3nc4c(c(=O)n(C)c(=O)n4C)n3C)n2C)n(C)c1=O
> 100 µM: HCT-15
inactive: NCI-H226 > 100 µM | SNB-75 > 100 µM | TK-10 > 100 µM | ACHN > 100 µM | SK-MEL-2 > 100 µM | OVCAR-3 > 100 µM | A498 > 100 µM | SK-MEL-28 > 100 µM | SW-620 > 100 µM | T47D > 100 µM | MOLT-4 > 100 µM | PC-3 > 100 µM | OVCAR-8 > 100 µM | CCRF-CEM > 100 µM | Hs-578T > 100 µM | SR > 100 µM | HOP-92 > 100 µM | DU-145 > 100 µM | UACC-257 > 100 µM | BT-549 > 100 µM | OVCAR-4 > 100 µM | LOX IMVI > 100 µM | EKVX > 100 µM | HCT-116 > 100 µM | MDA-N > 100 µM | M14 > 100 µM | NCI-H460 > 100 µM | NCI-H522 > 100 µM | SF-295 > 100 µM | A549 > 100 µM | MDA-MB-231 > 100 µM | 786-0 > 100 µM | UO-31 > 100 µM | HT-29 > 100 µM | RXF 393 > 100 µM | NCI/ADR-RES > 100 µM | CAKI-1 > 100 µM | IGROV-1 > 100 µM | K562 > 100 µM | OVCAR-5 > 100 µM | UACC-62 > 100 µM | SN12C > 100 µM | SNB-19 > 100 µM | HCC 2998 > 100 µM | U-251 > 100 µM | SF-268 > 100 µM | SK-MEL-5 > 100 µM | HOP-62 > 100 µM | KM12 > 100 µM | NCI-H23 > 100 µM | Malme-3M > 100 µM | MDA-MB-435 > 100 µM

[N-]=[N+]=NC1OC(=O)C(Cl)=C1N=P(c1ccccc1)(c1ccccc1)c1ccccc1 (centres undefined)
7.35 µM: HCT-15
inactive: NCI-H226 > 10 µM | SNB-75 6.84 µM | TK-10 > 10 µM | ACHN 8.63 µM | SK-MEL-2 > 10 µM | OVCAR-3 5.9 µM | A498 > 10 µM | SK-MEL-28 > 10 µM | SW-620 > 10 µM | T47D > 10 µM | MOLT-4 3.01 µM | PC-3 2.95 µM | RPMI-8226 3.34 µM | OVCAR-8 > 10 µM | CCRF-CEM 4.3 µM | SF-539 > 10 µM | Hs-578T > 10 µM | HL-60 3.77 µM | DU-145 > 10 µM | UACC-257 > 10 µM | BT-549 > 10 µM | OVCAR-4 9.71 µM | LOX IMVI 7.78 µM | EKVX > 10 µM | HCT-116 6.37 µM | MDA-N 9.27 µM | M14 6.98 µM | NCI-H460 > 10 µM | NCI-H522 6.67 µM | SF-295 7.24 µM | A549 > 10 µM | MDA-MB-231 6.44 µM | 786-0 > 10 µM | UO-31 > 10 µM | COLO 205 9.27 µM | RXF 393 > 10 µM | SK-OV-3 > 10 µM | NCI/ADR-RES 5.51 µM | CAKI-1 > 10 µM | IGROV-1 > 10 µM | K562 3.59 µM | OVCAR-5 > 10 µM | MCF7 7.13 µM | UACC-62 > 10 µM | SN12C > 10 µM | SNB-19 > 10 µM | HCC 2998 > 10 µM | U-251 > 10 µM | SF-268 > 10 µM | SK-MEL-5 > 10 µM | HOP-62 > 10 µM | KM12 7.85 µM | Malme-3M > 10 µM | MDA-MB-435 8.17 µM

COc1ccccc1C(=O)N(C)c1ccc(Cl)c(C(=O)OC(C)C)c1
39.5 µM: HCT-15
inactive: NCI-H226 > 100 µM | SNB-75 30.7 µM | TK-10 34 µM | ACHN 84.9 µM | SK-MEL-2 61.5 µM | OVCAR-3 71.3 µM | A498 70.6 µM | SK-MEL-28 49.7 µM | SW-620 46.6 µM | T47D 23.8 µM | MOLT-4 39.7 µM | PC-3 31.8 µM | RPMI-8226 39.4 µM | OVCAR-8 > 100 µM | CCRF-CEM > 100 µM | SF-539 > 100 µM | Hs-578T > 100 µM | HOP-92 48.2 µM | DU-145 42.5 µM | UACC-257 23.1 µM | BT-549 33 µM | OVCAR-4 35.6 µM | LOX IMVI 87.3 µM | EKVX 44.2 µM | HCT-116 40.3 µM | MDA-N 40.8 µM | M14 68.9 µM | NCI-H460 42 µM | NCI-H522 39.5 µM | SF-295 30.6 µM | A549 49.9 µM | MDA-MB-231 > 100 µM | 786-0 36.2 µM | UO-31 28.7 µM | HT-29 > 100 µM | COLO 205 42.9 µM | SK-OV-3 45.5 µM | NCI/ADR-RES 52.1 µM | CAKI-1 > 100 µM | IGROV-1 > 100 µM | OVCAR-5 > 100 µM | MCF7 62.4 µM | UACC-62 48.8 µM | SN12C > 100 µM | SNB-19 > 100 µM | HCC 2998 27 µM | U-251 67.8 µM | SF-268 95.9 µM | SK-MEL-5 22.8 µM | KM12 23.3 µM | NCI-H23 49.2 µM | Malme-3M > 100 µM | MDA-MB-435 29.4 µM

Cc1ccc(Nc2c3c(c(C#N)c4nc5ccccc5n24)CCCC3)cc1
16.9 µM: HCT-15
inactive: NCI-H226 21.7 µM | TK-10 25.5 µM | ACHN 21.6 µM | SK-MEL-2 13.1 µM | OVCAR-3 11.1 µM | SK-MEL-28 22.1 µM | SW-620 15.4 µM | T47D 13.7 µM | MOLT-4 3.73 µM | PC-3 6.64 µM | OVCAR-8 18 µM | CCRF-CEM 6.05 µM | SF-539 19.4 µM | Hs-578T > 100 µM | HOP-92 17.1 µM | HL-60 5.53 µM | DU-145 52.7 µM | UACC-257 17.7 µM | BT-549 35.8 µM | OVCAR-4 20.7 µM | LOX IMVI 22.1 µM | EKVX 17.3 µM | HCT-116 10.9 µM | MDA-N 28.7 µM | M14 21.6 µM | NCI-H460 16.9 µM | NCI-H522 14.3 µM | SF-295 13 µM | A549 12.5 µM | MDA-MB-231 22.5 µM | 786-0 26.7 µM | UO-31 12 µM | HT-29 13.6 µM | COLO 205 18.3 µM | SK-OV-3 38 µM | NCI/ADR-RES 21.3 µM | CAKI-1 25.4 µM | IGROV-1 28.2 µM | K562 4.39 µM | OVCAR-5 34 µM | MCF7 9.89 µM | UACC-62 14.7 µM | SN12C 17.4 µM | SNB-19 38.4 µM | HCC 2998 17.6 µM | U-251 17.5 µM | SF-268 > 100 µM | SK-MEL-5 10.7 µM | KM12 > 100 µM | NCI-H23 22.4 µM | Malme-3M 30.7 µM | MDA-MB-435 18.2 µM

O=C1C2C(C(=O)N1c1ccccc1)C1(c3ccccc3)CCC2(C(=O)c2ccccc2)O1 (centres undefined)
> 10 µM: HCT-15
inactive: TK-10 > 10 µM | ACHN > 10 µM | SK-MEL-2 > 10 µM | OVCAR-3 > 10 µM | A498 > 10 µM | SK-MEL-28 > 10 µM | SW-620 > 10 µM | T47D > 10 µM | MOLT-4 9.82 µM | PC-3 > 10 µM | RPMI-8226 > 10 µM | OVCAR-8 > 10 µM | CCRF-CEM > 10 µM | SF-539 > 10 µM | Hs-578T > 10 µM | HL-60 > 10 µM | DU-145 > 10 µM | UACC-257 > 10 µM | BT-549 > 10 µM | OVCAR-4 > 10 µM | LOX IMVI > 10 µM | EKVX > 10 µM | HCT-116 > 10 µM | MDA-N > 10 µM | M14 > 10 µM | NCI-H460 > 10 µM | NCI-H522 > 10 µM | SF-295 > 10 µM | A549 > 10 µM | MDA-MB-231 > 10 µM | 786-0 > 10 µM | UO-31 > 10 µM | HT-29 > 10 µM | COLO 205 > 10 µM | RXF 393 > 10 µM | SK-OV-3 > 10 µM | NCI/ADR-RES > 10 µM | CAKI-1 > 10 µM | IGROV-1 > 10 µM | OVCAR-5 > 10 µM | MCF7 > 10 µM | UACC-62 > 10 µM | SN12C > 10 µM | SNB-19 > 10 µM | HCC 2998 > 10 µM | U-251 > 10 µM | SF-268 > 10 µM | SK-MEL-5 > 10 µM | HOP-62 > 10 µM | KM12 > 10 µM | NCI-H23 > 10 µM | Malme-3M > 10 µM | MDA-MB-435 > 10 µM
